The results in this text go back to paper PMC5218480 (PLoS ONE, 2017).

Structures are written as SMILES.

The subject of this assay is MV-4-11 cells. Description: Gene expression microarray analysis (Affymetrix PrimeView) and GSEA. It is filed as cell-based, human. Details: RFU PODN (11730768_x_at) / Fold change /veh PODN (11730768_x_at) / RFU LINC00158 (11744669_a_at) / Fold change /veh LINC00158 (11744669_a_at) / RFU DUSP10 (11751237_a_at) / Fold change /veh DUSP10 (11751237_a_at) / RFU ID3 (11757404_x_at) / Fold change /veh ID3 (11757404_x_at) / RFU PLEKHG5 (11737974_s_at) / Fold change /veh PLEKHG5 (11737974_s_at) / RFU LRRC4B (11730491_at) / Fold change /veh LRRC4B (11730491_at) / RFU GIMAP4 (11747438_a_at) / Fold change /veh GIMAP4 (11747438_a_at) / RFU KRT8 (11758183_x_at) / Fold change /veh KRT8 (11758183_x_at) / RFU CNN1 (11734310_a_at) / Fold change /veh CNN1 (11734310_a_at) / RFU VPS37D (11726825_at) / Fold change /veh VPS37D (11726825_at) / RFU C10orf10 (11716522_x_at) / Fold change /veh C10orf10 (11716522_x_at) / RFU KIR2DL2 /// KIR2DL4 /// KIR2DL5A /// KIR2DL5B /// KIR2DS1 /// KIR2DS2 /// KIR2DS3 /// KIR2DS4 /// KIR3DL3 /// KIR3DL3 /// KIR3DS1 (11738374_at) / Fold change /veh KIR2DL2 /// KIR2DL4 /// KIR2DL5A /// KIR2DL5B /// KIR2DS1 /// KIR2DS2 /// KIR2DS3 /// KIR2DS4 /// KIR3DL3 /// KIR3DL3 /// KIR3DS1 (11738374_at) / RFU C1QL1 (11718748_at) / Fold change /veh C1QL1 (11718748_at) / RFU TMPRSS4 (11747572_a_at) / Fold change /veh TMPRSS4 (11747572_a_at) / RFU HAMP (11756126_x_at) / Fold change /veh HAMP (11756126_x_at) / RFU RNFT2 (11725882_a_at) / Fold change /veh RNFT2 (11725882_a_at) / RFU NR4A2 (11747474_a_at) / Fold change /veh NR4A2 (11747474_a_at) / RFU ABCC12 (11746883_a_at) / Fold change /veh ABCC12 (11746883_a_at) / RFU TMEM136 (11760407_x_at) / Fold change /veh TMEM136 (11760407_x_at) / RFU CLDN22 /// WWC2 (11732394_at) / Fold change /veh CLDN22 /// WWC2 (11732394_at) / RFU HLA-DPB1 (11760878_x_at) / Fold change /veh HLA-DPB1 (11760878_x_at) / RFU SPINT1 (11716480_a_at) / Fold change /veh SPINT1 (11716480_a_at) / RFU GAP43 (11754022_s_at) / Fold change /veh GAP43 (11754022_s_at) / RFU A4GNT (11735810_at) / Fold change /veh A4GNT (11735810_at) / RFU PRB3 (11715151_x_at) / Fold change /veh PRB3 (11715151_x_at) / RFU TUBB4B (11761932_at) / Fold change /veh TUBB4B (11761932_at) / RFU CAPN14 (11732068_a_at) / Fold change /veh CAPN14 (11732068_a_at) / RFU TMCC2 (11721928_a_at) / Fold change /veh TMCC2 (11721928_a_at) / RFU IRGQ (11745062_a_at) / Fold change /veh IRGQ (11745062_a_at) / RFU FAM174B (11720279_a_at) / Fold change /veh FAM174B (11720279_a_at) / RFU TMPRSS4 (11748680_a_at) / Fold change /veh TMPRSS4 (11748680_a_at) / RFU FAM212B (11763350_a_at) / Fold change /veh FAM212B (11763350_a_at) / RFU PLEKHG5 (11743358_a_at) / Fold change /veh PLEKHG5 (11743358_a_at) / RFU ZSCAN30 (11745921_a_at) / Fold change /veh ZSCAN30 (11745921_a_at) / RFU CMKLR1 (11741424_a_at) / Fold change /veh CMKLR1 (11741424_a_at) / RFU LOC101060620 /// MAPK8IP1 (11723275_at) / Fold change /veh LOC101060620 /// MAPK8IP1 (11723275_at) / RFU SPTSSB (11747773_x_at) / Fold change /veh SPTSSB (11747773_x_at) / RFU PRSS12 (11739890_at) / Fold change /veh PRSS12 (11739890_at) / RFU BIN1 (11741810_x_at) / Fold change /veh BIN1 (11741810_x_at) / RFU WNT11 (11732464_a_at) / Fold change /veh WNT11 (11732464_a_at) / RFU C10orf10 (11716521_a_at) / Fold change /veh C10orf10 (11716521_a_at) / RFU C5orf56 (11738089_at) / Fold change /veh C5orf56 (11738089_at) / RFU CYB561 (11721691_x_at) / Fold change /veh CYB561 (11721691_x_at) / RFU ANKRD19P (11752326_a_at) / Fold change /veh ANKRD19P (11752326_a_at) / RFU OR2T12 /// OR2T33 /// OR2T8 (11738714_s_at) / Fold change /veh OR2T12 /// OR2T33 /// OR2T8 (11738714_s_at) / RFU VCAN (11748164_a_at) / Fold change /veh VCAN (11748164_a_at) / RFU JSRP1 (11732532_at) / Fold change /veh JSRP1 (11732532_at) / RFU KRTAP10-11 (11738290_x_at) / Fold change /veh KRTAP10-11 (11738290_x_at) / RFU MYO3A (11730013_a_at) / Fold change /veh MYO3A (11730013_a_at) / RFU EBF3 (11725865_a_at) / Fold change /veh EBF3 (11725865_a_at) / RFU CAMK2N1 (11719241_x_at) / Fold change /veh CAMK2N1 (11719241_x_at) / RFU C5orf56 (11738088_a_at) / Fold change /veh C5orf56 (11738088_a_at) / RFU OLFML3 (11715873_a_at) / Fold change /veh OLFML3 (11715873_a_at) / RFU LOC100653217 /// NTM (11731650_a_at) / Fold change /veh LOC100653217 /// NTM (11731650_a_at) / RFU MAPK11 (11762145_a_at) / Fold change /veh MAPK11 (11762145_a_at) / RFU FIZ1 (11724087_x_at) / Fold change /veh FIZ1 (11724087_x_at) / RFU OASL (11726364_x_at) / Fold change /veh OASL (11726364_x_at) / RFU SOX15 (11748057_x_at) / Fold change /veh SOX15 (11748057_x_at) / RFU CD79A (11719716_a_at) / Fold change /veh CD79A (11719716_a_at) / RFU HIST1H1D (11736915_at) / Fold change /veh HIST1H1D (11736915_at) / RFU CASKIN2 (11723855_a_at) / Fold change /veh CASKIN2 (11723855_a_at) / RFU LOC730098 (11760151_x_at) / Fold change /veh LOC730098 (11760151_x_at) / RFU OR4N2 (11742367_at) / Fold change /veh OR4N2 (11742367_at) / RFU PRRT2 (11749266_a_at) / Fold change /veh PRRT2 (11749266_a_at) / RFU SNX32 (11753110_a_at) / Fold change /veh SNX32 (11753110_a_at) / RFU CDHR5 (11726645_a_at) / Fold change /veh CDHR5 (11726645_a_at) / RFU RCAN1 (11760418_a_at) / Fold change /veh RCAN1 (11760418_a_at) / RFU FAM167A (11723789_a_at) / Fold change /veh FAM167A (11723789_a_at) / RFU FAM26E (11764081_at) / Fold change /veh FAM26E (11764081_at) / RFU ISYNA1 (11749810_s_at) / Fold change /veh ISYNA1 (11749810_s_at) / RFU ACY1 (11761880_at) / Fold change /veh ACY1 (11761880_at) / RFU 11764098_at / Fold change /veh 11764098_at / RFU SAMD14 (11745864_x_at) / Fold change /veh SAMD14 (11745864_x_at) / RFU NPB (11741838_a_at) / Fold change /veh NPB (11741838_a_at) / RFU TMPRSS6 (11731388_a_at) / Fold change /veh TMPRSS6 (11731388_a_at) / RFU KRTAP10-2 (11738614_at) / Fold change /veh KRTAP10-2 (11738614_at) / RFU ARHGAP8 /// PRR5-ARHGAP8 (11727945_x_at) / Fold change /veh ARHGAP8 /// PRR5-ARHGAP8 (11727945_x_at) / RFU KRTAP5-7 /// NADSYN1 (11734609_at) / Fold change /veh KRTAP5-7 /// NADSYN1 (11734609_at) / RFU RASL12 (11751679_a_at) / Fold change /veh RASL12 (11751679_a_at) / RFU CDKN2B (11736163_a_at) / Fold change /veh CDKN2B (11736163_a_at) / RFU PRF1 (11729649_at) / Fold change /veh PRF1 (11729649_at) / RFU, ZNF638 /// ZNF638-IT1 / Fold change vs veh, ZNF638 /// ZNF638-IT1 / RFU, PANK3 / Fold change vs veh, PANK3 / RFU, SH3YL1 / Fold change vs veh, SH3YL1 / RFU, ZEB2 / Fold change vs veh, ZEB2 / RFU, NRIP1 / Fold change vs veh, NRIP1 / RFU, PTTG1IP / Fold change vs veh, PTTG1IP / RFU, CAPN2 / Fold change vs veh, CAPN2 / RFU, MED14 / Fold change vs veh, MED14 / RFU, SNORA58 / Fold change vs veh, SNORA58 / RFU, C1orf63 / Fold change vs veh, C1orf63 / RFU, LRRFIP1 / Fold change vs veh, LRRFIP1 / RFU, NDUFAF7 / Fold change vs veh, NDUFAF7 / RFU, SLC12A2 / Fold change vs veh, SLC12A2 / RFU, IBTK / Fold change vs veh, IBTK / RFU, ESF1 / Fold change vs veh, ESF1 / Fold change vs veh, TMEM50B / RFU, TAOK1 / Fold change vs veh, TAOK1 / RFU, ACBD3 / Fold change vs veh, ACBD3 / RFU, TMA16 / Fold change vs veh, TMA16 / RFU, RWDD3 / Fold change vs veh, RWDD3 / RFU, BCAT1 / Fold change vs veh, BCAT1 / RFU, EDEM3 / Fold change vs veh, EDEM3 / RFU, TMEM33 / Fold change vs veh, TMEM33 / RFU, WDR75 / Fold change vs veh, WDR75 / RFU, AHCTF1 / Fold change vs veh, AHCTF1 / RFU, TFRC / Fold change vs veh, TFRC / RFU, ZDHHC17 / Fold change vs veh, ZDHHC17 / RFU, NOM1 / Fold change vs veh, NOM1 / RFU, ARL8B / Fold change vs veh, ARL8B / RFU, ZBTB11 / Fold change vs veh, ZBTB11 / RFU, TAMM41 / Fold change vs veh, TAMM41 / RFU, KIAA1704 /// LOC100996395 / Fold change vs veh, KIAA1704 /// LOC100996395 / RFU, ING1 / Fold change vs veh, ING1 / RFU, TRMT61B / Fold change vs veh, TRMT61B / RFU, FUBP3 / Fold change vs veh, FUBP3 / RFU, TP53 / Fold change vs veh, TP53 / RFU, TNKS2 / Fold change vs veh, TNKS2 / RFU, ZFP14 / Fold change vs veh, ZFP14 / RFU, ACTR2 / Fold change vs veh, ACTR2 / RFU, PPP3R1 / Fold change vs veh, PPP3R1 / RFU, PIK3R1 / Fold change vs veh, PIK3R1 / RFU, HNRNPA1 / Fold change vs veh, HNRNPA1 / RFU, RNF170 / Fold change vs veh, RNF170 / RFU, ZNF28 / Fold change vs veh, ZNF28 / RFU, RNGTT / Fold change vs veh, RNGTT / RFU, OGT / Fold change vs veh, OGT / RFU, BRD1 / Fold change vs veh, BRD1 / RFU, MARS / Fold change vs veh, MARS / RFU, ZNF655 / Fold change vs veh, ZNF655 / RFU, FAHD1 / Fold change vs veh, FAHD1 / RFU, BDP1 / Fold change vs veh, BDP1 / RFU, LRRCC1 / Fold change vs veh, LRRCC1 / RFU, ARID1A / Fold change vs veh, ARID1A / RFU, ZNF146 / Fold change vs veh, ZNF146 / RFU, ZNF330 / Fold change vs veh, ZNF330 / RFU, GPN3 / Fold change vs veh, GPN3 / RFU, C9orf123 / Fold change vs veh, C9orf123 / RFU, N4BP2L2 / Fold change vs veh, N4BP2L2 / RFU, ARFIP1 / Fold change vs veh, ARFIP1 / RFU, FAM179B / Fold change vs veh, FAM179B / RFU, BCL10 / Fold change vs veh, BCL10 / RFU, UHRF1BP1L / Fold change vs veh, UHRF1BP1L / RFU, BET1 / Fold change vs veh, BET1 / RFU, CNOT2 / Fold change vs veh, CNOT2 / RFU, ZNF268 / Fold change vs veh, ZNF268 / Fold change vs veh, ZNF507 / RFU, DGCR2 / Fold change vs veh, DGCR2 / RFU, WDSUB1 / Fold change vs veh, WDSUB1 / Fold change vs veh, HSP90B1 /// MIR3652 / RFU, ADSS / Fold change vs veh, ADSS / RFU, GK / Fold change vs veh, GK / RFU, ZNF148 / Fold change vs veh, ZNF148 / RFU, TAF9 / Fold change vs veh, TAF9 / RFU, SLC1A5 / Fold change vs veh, SLC1A5 / RFU, SLMO2 / Fold change vs veh, SLMO2 / RFU, ABCC4 / Fold change vs veh, ABCC4 / RFU, LOC101060439 /// RAP1B / Fold change vs veh, LOC101060439 /// RAP1B / RFU, RFX7 / Fold change vs veh, RFX7 / RFU, GTPBP10 / Fold change vs veh, GTPBP10 / RFU, CNEP1R1 / Fold change vs veh, CNEP1R1 / RFU, BIVM-ERCC5 /// ERCC5 / Fold change vs veh, BIVM-ERCC5 /// ERCC5 / RFU, ILF3 / Fold change vs veh, ILF3 / RFU 11762660_at / Fold change /veh 11762660_at / RFU VCAN (11757783_s_at) / Fold change /veh VCAN (11757783_s_at) / RFU DDX43 (11728927_at) / Fold change /veh DDX43 (11728927_at) / RFU KRT8 (11758188_x_at) / Fold change /veh KRT8 (11758188_x_at) / RFU NKD1 (11759106_at) / Fold change /veh NKD1 (11759106_at) / RFU SRD5A1 (11742802_a_at) / Fold change /veh SRD5A1 (11742802_a_at) / RFU TPSAB1 /// TPSB2 (11721975_s_at) / Fold change /veh TPSAB1 /// TPSB2 (11721975_s_at) / RFU GSTM3 (11746129_a_at) / Fold change /veh GSTM3 (11746129_a_at) / RFU IL23R (11737362_x_at) / Fold change /veh IL23R (11737362_x_at) / RFU TMEM51 (11727254_a_at) / Fold change /veh TMEM51 (11727254_a_at) / RFU PIWIL2 (11732686_x_at) / Fold change /veh PIWIL2 (11732686_x_at) / RFU ORM1 (11744905_x_at) / Fold change /veh ORM1 (11744905_x_at) / RFU CCDC152 (11743942_at) / Fold change /veh CCDC152 (11743942_at) / RFU ECM1 (11717891_a_at) / Fold change /veh ECM1 (11717891_a_at) / RFU IL23R (11748794_a_at) / Fold change /veh IL23R (11748794_a_at) / RFU TNFAIP8L3 (11732012_x_at) / Fold change /veh TNFAIP8L3 (11732012_x_at) / RFU MBOAT4 (11741988_at) / Fold change /veh MBOAT4 (11741988_at) / RFU 11764193_at / Fold change /veh 11764193_at / RFU TMEM53 (11763286_at) / Fold change /veh TMEM53 (11763286_at) / RFU MAGEB2 (11727129_at) / Fold change /veh MAGEB2 (11727129_at) / RFU TMEM200A (11744735_a_at) / Fold change /veh TMEM200A (11744735_a_at) / RFU CCDC152 (11751479_a_at) / Fold change /veh CCDC152 (11751479_a_at) / RFU FAM211A (11726209_a_at) / Fold change /veh FAM211A (11726209_a_at) / RFU RGS16 (11746705_a_at) / Fold change /veh RGS16 (11746705_a_at) / RFU VCAN (11755009_s_at) / Fold change /veh VCAN (11755009_s_at) / RFU RHOB (11743442_s_at) / Fold change /veh RHOB (11743442_s_at) / RFU RGS16 (11720943_a_at) / Fold change /veh RGS16 (11720943_a_at) / RFU RGS16 (11720944_at) / Fold change /veh RGS16 (11720944_at) / RFU, VPS4B / Fold change vs veh, VPS4B / RFU, CREB1 / Fold change vs veh, CREB1 / RFU, DNAJC13 / Fold change vs veh, DNAJC13 / RFU, GNAQ / Fold change vs veh, GNAQ / RFU, CDK5R1 / Fold change vs veh, CDK5R1 / RFU, ZRANB3 / Fold change vs veh, ZRANB3 / RFU, CUL4A / Fold change vs veh, CUL4A / RFU, CCNY / Fold change vs veh, CCNY / RFU, UFL1 / Fold change vs veh, UFL1 / RFU, COG3 / Fold change vs veh, COG3 / RFU, DIAPH2 / Fold change vs veh, DIAPH2 / RFU, SKA2 / Fold change vs veh, SKA2 / RFU, AFF3 / Fold change vs veh, AFF3 / RFU, LMF1 / Fold change vs veh, LMF1 / RFU, IPO11 / Fold change vs veh, IPO11 / RFU, DFFB / Fold change vs veh, DFFB / RFU, FOXP1 / Fold change vs veh, FOXP1 / RFU, CARD8 / Fold change vs veh, CARD8 / RFU, STRN3 / Fold change vs veh, STRN3 / RFU, ADK / Fold change vs veh, ADK / RFU, RASSF2 / Fold change vs veh, RASSF2 / RFU, WIPF1 / Fold change vs veh, WIPF1 / RFU, LARP1B / Fold change vs veh, LARP1B / RFU, RASA1 / Fold change vs veh, RASA1 / RFU, RB1 / Fold change vs veh, RB1 / RFU, PPFIA1 / Fold change vs veh, PPFIA1 / RFU, MAT2A / Fold change vs veh, MAT2A / RFU, CCT5 / Fold change vs veh, CCT5 / RFU, WDR92 / Fold change vs veh, WDR92 / RFU, CUX1 / Fold change vs veh, CUX1 / RFU, TTC7A / Fold change vs veh, TTC7A / RFU, TMEM135 / Fold change vs veh, TMEM135 / RFU, DEPTOR / Fold change vs veh, DEPTOR / RFU, CPM / Fold change vs veh, CPM / RFU, DNAJB6 / Fold change vs veh, DNAJB6 / RFU, CACNA2D3 / Fold change vs veh, CACNA2D3 / RFU, DTX4 / Fold change vs veh, DTX4 / RFU, TFCP2 / Fold change vs veh, TFCP2 / RFU, GMCL1 /// GMCL1P1 / Fold change vs veh, GMCL1 /// GMCL1P1 / RFU, AEBP2 / Fold change vs veh, AEBP2 / RFU, SNHG1 /// SNORD22 /// SNORD25 /// SNORD26 /// SNORD27 /// SNORD28 /// SNORD29 /// SNORD31 / Fold change vs veh, SNHG1 /// SNORD22 /// SNORD25 /// SNORD26 /// SNORD27 /// SNORD28 /// SNORD29 /// SNORD31 / Fold change (Aza/veh), C12orf56 (ProbeSet 11735607_a_at) / Fold change (ACY-1035/veh), C12orf56 (ProbeSet 11735607_a_at) / Fold change (Aza/veh), FGFR1OP (ProbeSet 11751329_s_at) / Fold change (ACY-1035/veh), FGFR1OP (ProbeSet 11751329_s_at) / Fold change (Aza/veh), VPS36 (ProbeSet 11739960_a_at) / Fold change (ACY-1035/veh), VPS36 (ProbeSet 11739960_a_at) / RFU SYPL1 (11715823_x_at) / Fold change /veh SYPL1 (11715823_x_at) / RFU IGFBP7 (11715501_s_at) / Fold change /veh IGFBP7 (11715501_s_at) / RFU REEP3 (11722064_at) / Fold change /veh REEP3 (11722064_at) / RFU IGLL1 (11728026_x_at) / Fold change /veh IGLL1 (11728026_x_at): dose or concentration left out as unconfirmed. The settings on record: ProbeSet 11741123_x_at; LIST D.

Turning to `Nc1ncn([C@@H]2O[C@H](CO)[C@@H](O)[C@H]2O)c(=O)n1` [azacitidine], the “Fold change vs veh, ADK” value is listed as 0.72.
